{
  "source": "paper PMC5440690",
  "about": "“Sirt1 carboxyl-domain is an ATP-repressible domain that is transferrable to other proteins” (Nature Communications, 2017)",
  "key": {"2A Sirt1": {"target": "T1, 2A Sirt1 (Mus musculus, UniProt Q923E4, S649A/S651A)", "T1 construct": "full-length recombinant 2A Sirt1", "T1 sequence (Q923E4 1-737 S649A/S651A)": "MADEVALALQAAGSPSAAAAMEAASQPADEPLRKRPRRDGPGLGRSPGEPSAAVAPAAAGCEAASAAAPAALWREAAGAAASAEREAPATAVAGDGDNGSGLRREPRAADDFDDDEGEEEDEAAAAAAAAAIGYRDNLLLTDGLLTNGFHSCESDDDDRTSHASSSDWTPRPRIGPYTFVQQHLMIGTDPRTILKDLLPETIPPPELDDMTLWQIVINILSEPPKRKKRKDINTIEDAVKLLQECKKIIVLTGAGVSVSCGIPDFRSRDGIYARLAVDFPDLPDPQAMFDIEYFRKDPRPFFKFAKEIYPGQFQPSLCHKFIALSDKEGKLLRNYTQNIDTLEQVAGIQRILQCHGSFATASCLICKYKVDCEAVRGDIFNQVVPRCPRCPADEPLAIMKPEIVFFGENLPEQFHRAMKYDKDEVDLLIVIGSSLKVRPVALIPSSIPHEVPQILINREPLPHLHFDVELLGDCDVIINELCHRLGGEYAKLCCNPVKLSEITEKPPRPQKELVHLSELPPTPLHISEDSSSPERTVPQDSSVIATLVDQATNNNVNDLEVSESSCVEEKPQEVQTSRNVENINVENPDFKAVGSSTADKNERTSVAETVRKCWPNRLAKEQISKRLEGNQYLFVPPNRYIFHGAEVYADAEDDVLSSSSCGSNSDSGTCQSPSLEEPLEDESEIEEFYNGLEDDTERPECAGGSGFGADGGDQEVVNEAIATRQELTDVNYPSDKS", "test": "deacetylation of [3H]Ac-H4, inhibition kinetics (Kii); weakened ATP-agarose binding", "type": "biochemical"}, "Sirt1": {"target": "T2, Sirt1 (Mus musculus, UniProt Q923E4)", "T2 construct": "full-length recombinant Sirt1", "T2 sequence (Q923E4 2-737)": "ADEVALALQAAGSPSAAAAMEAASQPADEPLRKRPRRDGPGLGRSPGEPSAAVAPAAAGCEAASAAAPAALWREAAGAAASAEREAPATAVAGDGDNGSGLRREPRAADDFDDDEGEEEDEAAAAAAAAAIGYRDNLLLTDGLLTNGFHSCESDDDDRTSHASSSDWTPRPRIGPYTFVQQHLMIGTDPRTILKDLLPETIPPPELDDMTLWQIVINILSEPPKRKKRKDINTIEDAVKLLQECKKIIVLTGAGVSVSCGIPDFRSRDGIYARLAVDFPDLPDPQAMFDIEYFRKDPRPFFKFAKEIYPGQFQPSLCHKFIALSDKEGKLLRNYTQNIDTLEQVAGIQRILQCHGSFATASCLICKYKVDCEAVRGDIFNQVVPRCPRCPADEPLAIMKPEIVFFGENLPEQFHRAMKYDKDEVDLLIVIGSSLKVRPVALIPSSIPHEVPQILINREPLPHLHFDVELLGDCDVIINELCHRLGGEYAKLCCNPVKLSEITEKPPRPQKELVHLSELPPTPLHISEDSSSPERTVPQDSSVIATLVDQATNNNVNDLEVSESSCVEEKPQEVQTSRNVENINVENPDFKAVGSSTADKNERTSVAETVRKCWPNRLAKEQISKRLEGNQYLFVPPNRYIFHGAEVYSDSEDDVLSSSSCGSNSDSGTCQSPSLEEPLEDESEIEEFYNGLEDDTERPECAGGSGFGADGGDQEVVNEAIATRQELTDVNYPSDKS", "test": "gel-filtration (spin column) binding with [γ-32P]ATP; also ATP-agarose pull-down with free ATP competition, and enzyme inhibition"}},
  "data": [
    {"smiles": "Nc1ncnc2c1ncn2[C@@H]1O[C@H](COP(=O)(O)OP(=O)(O)OP(=O)(O)O)[C@@H](O)[C@H]1O", "note": "[ATP]", "values": [
      {"measurement": "Ki", "setting": "2A Sirt1", "result": "6.45 ± 0.51", "unit": "mM"},
      {"measurement": "Kd", "setting": "Sirt1", "result": "~4.6", "unit": "mM"}
    ]}
  ]
}
